Reference: the METLIN SMRT retention time set (Domingo-Almenara et al. 2019)

Experiment: gradient 5% acetonitrile 3 min, to 50% in 2 min, to 85% in 15 min, held 3 min, 100 µL/min
Settings: column: Zorbax Extend-C18 2.1 x 50 mm; eluents: water / acetonitrile, 0.1% formic acid
How it was run: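 Retention time was recorded from adduct peaks, which were picked computationally and each inspected manually. Pure standards ran in mixtures of ~100 molecules on HPLC coupled to a quadrupole time-of-flight mass spectrometer, in positive and negative ionization mode, through a Zorbax Extend-C18 column (2.1 × 50 mm, 1.8 μm) at 100 μL/min. Eluents were water and acetonitrile, each with 0.1% formic acid.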

RP-LC retention time [s]	SMILES
692	O=C(NCc1ccc2c(c1)OCO2)C1COC2(CCN(C(=O)C3CC3)CC2)N1C(=O)c1ccccc1 (stereo not given)
619	COCC1CN(Cc2cn[nH]c2-c2ccc(F)cc2)CCC1(F)F (stereo not given)
673	O=C(NC1CC1)C1(F)CCN(S(=O)(=O)c2ccccc2)CC1
793	COc1ccccc1NC(=O)CSC1CCc2ccccc2NC1=O (stereo not given)
630	CC(=O)c1ccc(NC(=O)c2cn(C)nc2C)cc1
597	CCc1nc2ccccc2n1CC(=O)NCC(C)C
1100	O=C(COc1ccc(Cl)cc1)Nc1nc(-c2ccccc2)cs1
947	O=C(NCc1ccco1)c1ccc2cnn(Cc3cccc(Cl)c3)c2c1
1100	COc1ccc(-c2noc(-c3nc(Cc4ccccc4)no3)n2)cc1OC
701	Cc1cc(C)c(NC(=O)C2CCCN(c3nc4ccccc4nc3C(F)(F)F)C2)c(C)c1 (stereo not given)
719	Cc1ccc(-n2c(N3CCC(C(=O)NC4CC4)CC3)nc3ccsc3c2=O)cc1
733	O=C(Cc1ccccc1Cl)N1CCN(S(=O)(=O)C2CC2)CC1
798	Cc1ccccc1Nc1c(-c2ccc(N(C)C)cc2)nc2c(C)cccn12
566	O=C(NCCCN1CCCC1)C1CCc2sc(C(=O)N3CCOCC3)cc2C1 (stereo not given)
768	COc1ccc(C(=O)CSc2nnc3sc4ccccc4n23)cc1OC
586	CCNC(=O)N1CCC(OC(C)=O)CC1
795	O=C(NCc1ccc(F)cc1F)c1csc(C(=O)N2CCCC2)n1
768	CCOc1ccc(C(=O)N2CCC3(CC2)NC(=O)c2ccc(Cl)cc2N3)cc1
915	O=C(Cn1cccc1-c1nnc(C2CCC2)o1)N1CCc2ccccc2C1
674	O=S(=O)(CCOc1ccccc1)NCc1ccccc1
1190	CCCSCCCNc1nc(-c2nnc(-c3cccc(C)c3)o2)nc2ccccc12
791	O=C(NCC1(c2cccs2)CC1)c1ccsc1

RP-LC retention time [s]	SMILES
748	Cc1ccc(-c2nocc2CCC(=O)O)cc1
634	CCOC(=O)c1c(-c2cccnc2)n(C)c2cc(-c3cccnc3)c(OC)cc12
845	O=C(c1ccc(F)c(F)c1)N1CCOC(c2ccccc2)C1 (stereo not given)
805	C=CCn1ccc2c(OCC(=O)Nc3ccc4c(c3)OCO4)cccc2c1=O
943	Cc1sc(NC(=O)c2cccc(Br)c2)nc1-c1ccc2c(c1)N(C)C(=O)CO2
570	COc1ccccc1CC(=O)N1CCC(Nc2ncnc3c2CCC3)C1 (stereo not given)
636	Cc1c(-c2ccccc2)nc2ccccc2c1C(=O)N1CCN(c2ncccn2)CC1
846	Cc1cc(C)cc(NC(=O)N2CCC(n3cnc4cc(F)ccc4c3=O)CC2)c1
847	Cc1nc2c(SCC(=O)Nc3ccc4c(c3)OCO4)nnc(-c3ccccc3)c2s1
646	CCC(=O)Nc1c(C)noc1/C=C\c1ccc(S(=O)(=O)N2CCN(c3ccccn3)CC2)cc1
969	Nc1nc(-c2ccc(F)cc2)nn1C(=O)c1ccc(F)cc1
652	COc1ccc(S(=O)(=O)Nc2cc(-c3cn4ccc(C)cc4n3)ccc2C)cc1OC
668	CCC(C)NC(=O)CCc1cc2cc(OC)ccc2[nH]c1=O (stereo not given)
951	Cc1ccc(NC(=O)N2CCC(C(C)C(=O)Nc3ccc(Cl)cc3)CC2)cc1 (stereo not given)
638	CC(=O)c1ccc(NC(=O)c2[nH]c3cc(C)sc3c2CN(C)C)cc1
691	Cc1nn(CC(=O)NCCCN2CC(C)CC(C)C2)c(=O)c2c1sc1ccccc12 (stereo not given)
602	CN(C)c1ccc(CNC(=O)CCCN2C(=O)CCn3nc(-c4cn(C)c5ccccc45)cc32)cc1
776	Cc1nn(-c2ccc(SCC(=O)NC(C)C)nn2)c(C)c1C
645	CS(=O)(=O)N1CC(n2cc(C(=O)NCC3CC3)nn2)C1
775	O=C(NCC1(c2cccs2)CCOCC1)C(=O)NC1CCCC1
983	COc1ccc(-n2c(=O)c(C(=O)Nc3ccc(F)c(F)c3)c(O)c3cccnc32)cc1
570	Cc1noc(COC2CCCN(C(=O)c3ccc4cc[nH]c4c3)C2)n1 (stereo not given)

RP-LC retention time [s]	SMILES
672	Cc1ccccc1-c1nc(CN2CCN(C(=O)NC3CCCC3)CC2)c(C)o1
874	O=C(Nc1ccsn1)c1ccc(Cl)cc1Cl
761	CS(=O)(=O)N1CCCN(C(=O)C2(c3ccccc3)CC2)c2ccccc21
640	CSc1cccc(NC(=O)C(=O)NCC(c2ccc3c(c2)CCCN3C)N2CCCC2)c1 (stereo not given)
658	O=Cc1ccc(O)c2ncccc12
775	COc1ccc2[nH]cc(CCN3CC(C(=O)Nc4ccc(C)cc4C)CC3=O)c2c1 (stereo not given)
859	Cc1ccc(C)c(NS(=O)(=O)c2cc3c(s2)CCN(C(=O)C2CCC2)C3)c1
924	Cn1c(=O)n(CC(=O)N2CCCC2)c(=O)c2cnc(-c3ccc(Cl)cc3)nc21
925	CCOC(=O)C1CCCN(C(=O)c2ccc(-c3csc(CC)n3)cc2)C1 (stereo not given)
823	Cc1nn2c(N3CCN(c4ccccn4)CC3)cc(C(C)C)nc2c1-c1ccccc1
675	CN(CC1CCOC1)C(=O)NCc1cccc(F)c1 (stereo not given)
494	CCNC(=O)N1CCCC(Cc2nncn2C(C)C)C1 (stereo not given)
626	Cc1cccc(CNC(=O)C2CCN(CCc3cn(C)c4ncccc34)CC2)c1
1090	Cc1ccccc1N1CCN(S(=O)(=O)c2cc(-c3nnc(C4CC4)o3)co2)CC1
841	O=C(N1c2ccccc2CC1c1nnc(C2CCOCC2)o1)C1(c2ccccc2)CC1 (stereo not given)
892	CCN(Cc1ccccc1)C(=O)CN1C(=O)C2CCCCN2c2ccc(C(=O)N3CCCC3)cc21 (stereo not given)
669	CC1=C(C(=O)NCc2ccc3c(c2)OCO3)C2(CCN(Cc3ccccc3)CC2)OC1=O
621	c1ccc2c(CCNc3nc(N4CCCC4)c4n[nH]nc4n3)c[nH]c2c1
913	CC(C)c1ccc(-n2nc(N3CCN(C(=O)c4cccs4)CC3)ccc2=O)cc1
730	COc1ccc(C(=O)N2CCC3(CC2)NC(=O)c2cc(F)ccc2N3C)cc1
857	CCCN1C(=O)Cc2ccccc2C1C(=O)NCc1ccc(Br)cc1 (stereo not given)
892	O=C(NCc1csc(-c2cccs2)n1)C1CCN(S(=O)(=O)c2ccc(F)cc2)CC1

RP-LC retention time [s]	SMILES
748	COCCN1C(=O)CCc2cc(NS(=O)(=O)c3cccc(F)c3)ccc21
667	CC1(C)CC(=O)c2cn(-c3ccc(Cl)cc3)c(=O)c(C(=O)N3CCC(N4CCCCC4)CC3)c2C1
888	CCn1c(=O)c(C)nc2cc(-c3noc(Cc4ccc(OC)c(OC)c4)n3)ccc21
600	COc1ccc(NC(=O)CN2CCc3[nH]c4c(C)cc(F)cc4c(=O)c3C2)cc1
682	COc1ccc(-c2nnc(-c3cc(S(=O)(=O)N4CCN(C)CC4)ccc3Cl)o2)cc1
709	CCn1ccc(C(=O)NC2CCCC2)n1
611	Cn1nc2n(c1=O)CCN(C(=O)Cc1ccsc1)CC2
581	O=C1Nc2cc(C(=O)N3CCC(N4CCCCC4)CC3)ccc2N2CCCCC12 (stereo not given)
1250	CCOc1ccccc1NC(=O)c1sc(-c2cn(CC)c3ncccc23)nc1C
1100	CSc1ccc(Nc2ncccc2S(=O)(=O)Nc2ccc(F)cc2)cc1
981	COc1ccccc1NC(=O)C1CCN(S(=O)(=O)c2c(C)nn(-c3ccccc3)c2C)CC1
1080	CCOC(=O)c1c(C)c(C(=O)C(C)N(Cc2ccc(F)cc2)C(=O)CC)c(C)n1CC (stereo not given)
823	CCOC(=O)c1cc(S(=O)(=O)N2CCCC2C(=O)NCc2cccs2)cn1C (stereo not given)
980	CCCn1cc(S(=O)(=O)Nc2ccc(Cl)cc2F)c2cccnc21
934	Cc1cc(NC(=O)Cn2c(C)cc(-c3nnc(C4CCC4)o3)c2C)ccc1F
934	Cc1ccc(C)c(NC(=O)N(C)CCc2noc(COc3ccccc3)n2)c1
569	COc1ccc(-c2csc3ncnc(NCCN4CCOCC4)c23)cc1
749	Cn1c(C(=O)N2CCN(c3ccccn3)CC2)cc2c(-c3cccs3)nn(-c3ccccc3)c21
926	COC(=O)c1ccc(NC(=O)CSc2cc(N3CCN(c4ccc(OC)cc4)CC3)ncn2)cc1
591	Cc1ccc(CNC(=O)N2CC(N(C3CCOCC3)S(C)(=O)=O)C2)cc1
1050	Cc1sc(-c2noc(C3CCC3)n2)cc1S(=O)(=O)N1CCC(C(=O)N2CCCCC2)CC1
777	CC1=C(c2ccccc2)S(=O)(=O)N=C1N1CCCN(C(=O)c2cccc(C#N)c2)CC1

SMILES	RP-LC retention time [s]
CCC(=O)N1CCC2(CC1)NCc1ccccc1-n1ccnc12	562
COc1cc2c3cc1Oc1c(OC)c(OC)cc4c1C(Cc1ccc(cc1)Oc1cc(ccc1O)CC3N(C)CC2)N(C)CC4 (stereo not given)	579
